According to ChEMBL document CHEMBL4823280, “Efficient Synthesis of Icetexane Diterpenes and Apoptosis Inducing Effect by Upregulating BiP-ATF4-CHOP Axis in Colorectal Cells” (J Nat Prod, 2021):
Active and inactive are the calls of the source. The rule behind the calls is not given here.

What was measured:
[1] = system: HCT-116; assay: Cytotoxicity against human HCT-116 cells assessed as reduction in cell viability measured after 48 hrs by MTT assay; assay type: functional, cell-based; settings: HCT-116, 48 h
[2] = system: COLO 205; assay: Cytotoxicity against human COLO 205 cells assessed as reduction in cell viability measured after 48 hrs by MTT assay; assay type: functional, cell-based; settings: COLO 205, 48 h
[3] = system: Caco-2; assay: Cytotoxicity against human Caco-2 cells assessed as reduction in cell viability measured after 48 hrs by MTT assay; assay type: functional, cell-based; settings: Caco-2, 48 h
[4] = Stability of the compound in human HCT-116 cells assessed as Demethylsalvicanol-Quione formation measured after 72 hrs by HPLC analysis; assay type: ADME, cell-based; settings: hct-116, 72 h
[5] = system: HCT-116; assay: Inhibition of colony formation in human HCT-116 cells at 1.25 to 10 uM incubated for 14 days by crystal violet staining based analysis; assay type: functional, cell-based; settings: dose 1.25-10 µM, time 14.0 day
[6] = system: HCT-116; assay: Induction of apoptosis in human HCT-116 cells assessed as early apoptotic cells at 5 uM measured after 24 hrs by Annexin V-FITC/PI staining based flow cytometry analysis (Rvb= 7.48%); assay type: functional
[7] = system: HCT-116; assay: Induction of apoptosis in human HCT-116 cells assessed as early apoptotic cells at 10 uM measured after 24 hrs by Annexin V-FITC/PI staining based flow cytometry analysis (Rvb= 7.48%); assay type: functional
[8] = system: HCT-116; assay: Induction of ER stress in human HCT-116 cells assessed as increase in BiP protein expression measured after 6 hrs by western blotting analysis; assay type: functional, cell-based; settings: dose 5-20 µM
[9] = system: HCT-116; assay: Induction of ER stress in human HCT-116 cells assessed as upregulation of ATF4 expression at 5 to 20 uM measured after 6 hrs by western blotting analysis; assay type: functional, cell-based; settings: dose 5-20 µM
[10] = system: HCT-116; assay: Induction of ER stress in human HCT-116 cells assessed as upregulation of CHOP expression at 5 to 20 uM measured after 6 hrs by western blotting analysis; assay type: functional, cell-based; settings: dose 5-20 µM
[11] = system: HCT-116; assay: Induction of ER stress in human HCT-116 cells assessed as increase in BiP nuclear translocation at 2.5 to 10 uM measured after 6 hrs by DAPI based immunostaining analysis; assay type: functional, cell-based; settings: dose 2.5-10 µM
[12] = system: HCT-116; assay: Induction of ER stress in human HCT-116 cells assessed as colocalization of BiP with ATF4 at 20 uM measured after 12 hrs by immunofluorescence staining analysis; assay type: functional, cell-based
[13] = system: HCT-116; assay: Induction of apoptosis in human HCT-116 cells assessed as viable cells at 5 uM measured after 24 hrs by Annexin V-FITC/PI staining based flow cytometry analysis (Rvb= 88.45%); assay type: functional; settings: read-out: Activity
[14] = system: HCT-116; assay: Induction of apoptosis in human HCT-116 cells assessed as late apoptotic cells at 5 uM measured after 24 hrs by Annexin V-FITC/PI staining based flow cytometry analysis (Rvb= 2.89%); assay type: functional
[15] = system: HCT-116; assay: Induction of apoptosis in human HCT-116 cells assessed as necrotic cells at 5 uM measured after 24 hrs by Annexin V-FITC/PI staining based flow cytometry analysis (Rvb= 1.18%); assay type: functional
[16] = system: HCT-116; assay: Induction of apoptosis in human HCT-116 cells assessed as viable cells at 10 uM measured after 24 hrs by Annexin V-FITC/PI staining based flow cytometry analysis (Rvb= 88.45%); assay type: functional; settings: read-out: Activity
[17] = system: HCT-116; assay: Induction of apoptosis in human HCT-116 cells assessed as late apoptotic cells at 10 uM measured after 24 hrs by Annexin V-FITC/PI staining based flow cytometry analysis (Rvb= 2.89%); assay type: functional
[18] = system: HCT-116; assay: Induction of apoptosis in human HCT-116 cells assessed as necrotic cells at 10 uM measured after 24 hrs by Annexin V-FITC/PI staining based flow cytometry analysis (Rvb= 1.18%); assay type: functional

SMILES: CC(=O)Oc1c(C(C)C)cc2c(c1OC(C)=O)C[C@@]13O[C@@H]1CCC(C)(C)[C@@H]3CC2
- IC50 [1]: 11.1 µM
- IC50 [2]: 7.52 µM
- IC50 [3]: 13.8 µM

SMILES: CC(C)C1=CC2=C(C[C@@]3(O)CCCC(C)(C)[C@@H]3CC2)C(=O)C1=O
- IC50 [1]: 2.93 µM
- IC50 [2]: 3.18 µM
- IC50 [3]: 2.71 µM

SMILES: CC(C)c1cc2c(c3c1O[C@@]1(C(C)C)C(=O)C(=O)C4=C(CC[C@H]5C(C)(C)CCC[C@]5(O)C4)[C@H]1O3)C[C@@]1(O)CCCC(C)(C)[C@@H]1CC2
- IC50 [1]: 2.7 µM
- IC50 [2]: 3.39 µM
- IC50 [3]: 2.69 µM
- Stabilty [4]: Stable
- inhibition [5]: Active
- Activity [6]: 14.73%
- Activity [7]: 13.38%
- Activity [8]: Dose-Dependent Effect
- Activity [9]: Active
- Activity [10]: Active
- Activity [11]: Active
- Activity [12]: Active
- viability at 5 µM [13]: 63.6%
- Activity [14]: 16.43%
- Activity [15]: 5.28%
- viability at 10 µM [16]: 58.8%
- Activity [17]: 19.84%
- Activity [18]: 7.97%

SMILES: CC(=O)Oc1c(C(C)C)cc2c(c1OC(C)=O)CC1=CCCC(C)(C)[C@@H]1CC2
- IC50 [1]: 18.6 µM
- IC50 [2]: 18.5 µM
- IC50 [3]: 10.4 µM

SMILES: CC(C)c1cc2c(c(O)c1O)C[C@@]1(O)CCCC(C)(C)[C@@H]1CC2
- IC50 [1]: 18.8 µM
- IC50 [2]: 11.2 µM
- IC50 [3]: 3.07 µM

SMILES: CC(C)c1cc2c(c(O)c1O)C=C1C=CCC(C)(C)[C@@H]1CC2
- IC50 [1]: 10.6 µM
- IC50 [2]: 7.81 µM
- IC50 [3]: 7.2 µM

SMILES: CC(C)C1=CC2=C(C[C@@]34CCCC(C)(C)[C@@H]3C[C@@H]2O4)C(=O)C1=O
- IC50 [1]: 13.3 µM
- IC50 [2]: 10.4 µM
- IC50 [3]: 3.86 µM

SMILES: CC(C)c1cc2c(c(O)c1O)CC1=CCCC(C)(C)[C@@H]1CC2
- IC50 [1]: > 20.9 µM
- IC50 [2]: > 20.9 µM
- IC50 [3]: 13.7 µM

SMILES: O=c1[nH]cc(F)c(=O)[nH]1 [FLUOROURACIL]
- IC50 [1]: 7.38 µM
- IC50 [2]: 5.29 µM
- IC50 [3]: 7.77 µM

SMILES: CC(C)c1cc2c(c(O)c1O)C[C@@]13CCCC(C)(C)[C@@H]1C[C@@H]2O3 [BRUSSONOL]
- IC50 [1]: > 20.2 µM
- IC50 [2]: > 20.2 µM
- IC50 [3]: > 20.2 µM
